Assay results from patent publication US8796339B2, “Compositions comprising benzyl alcohol derivatives and further antimicrobial active compounds” (Symrise AG, priority 2008, dated 2014).

Test system: Aspergillus niger ATCC 16404
Assay: Testing for adequate preservation (European Pharmacopoeia 5.1.3 preservative stress test) of inoculated cosmetic emulsions
Format: cell-based
Details: for cfu/ml at 0 days / cfu/ml at 2 days / cfu/ml at 7 days / cfu/ml at 14 days: 4-methylbenzyl alcohol 0.4%; for cfu/ml at 0 days / Aspergillus niger germ count at 0 days (initial, "0 value"): day 0; for cfu/ml at 2 days / Aspergillus niger germ count at 2 days: day 2; for cfu/ml at 7 days / Aspergillus niger germ count at 7 days: day 7; for cfu/ml at 14 days: day 14; for Aspergillus niger germ count at 0 days (initial, "0 value") / Aspergillus niger germ count at 2 days / Aspergillus niger germ count at 7 days: 1.0% product in O/W emulsion pH 5.5, B=1.0% 4-methylbenzyl alcohol
Description: Testing for adequate preservation was carried out in accordance with the European Pharmacopoeia. Testing thus comprises contamination of the formulation, if possible in its final condition, with a prescribed inoculum of suitable microorganisms, storage of the inoculated formulation at a certain temperature, removal of samples from the container at certain intervals of time and determination of the number of microorganisms in the samples removed in this way. The preserving properties are adequate if, under the conditions of the test, a clear reduction or, where appropriate, no increase in the germ count results in the inoculated formulations after the prescribed times at the prescribed temperatures. Experimental details of the test procedure are described in the European Pharmacopoeia (ISBN 3-7692-2768-9; Supplement 2001 to the 3rd Edition, page 421-422, chapter 5.1.3). E: Aspergillus niger ATCC 16404 The initial germ count (cfu/ml; “0 value”) was in the range of from 230000 to 400000 in the various test series. For the tests for adequate preservation, a defined amount of the active compound combination according to the invention (product C) was incorporated into an O/W emulsion. For comparison purposes, the comparison products (product A and B) were incorporated into separate O/W emulsions. […] Phenonip® is a commercially available (Clariant, Nipa preservatives) and in cosmetic formulations widely used antimicrobial active mixture consisting of phenoxyethanol, methylparaben, ethylparaben, butylparaben, propylparaben and isobutylparaben. Testing for adequate preservation was carried out in accordance with the European Pharmacopoeia, as explained in Example 1a. The initial germ count (cfu/ml; “0 value”) was in the range of from 200,000 to 400,000 in the various test series.

[1] = Example 3, Table 9, dosage: 1,2-decanediol 1.0%, mixture 0.5% (title; listed as prints 1.5%)+0.2%
[2] = Example 3, Table 8, dosage: 1,2-hexanediol 3.0%, mixture 1.5%+0.2%
[3] = Example 3, Table 7, dosage: 1,2-pentanediol 4.0%, mixture 2.0%+0.2%
[4] = Example 1a, A=0.5% 1,2-hexanediol+0.5% 1,2-octanediol, C=0.4%+0.4%+0.2%
[5] = Example 1b, A=0.25% 1,2-hexanediol+0.75% 1,2-octanediol, C=0.2%+0.6%+0.2%
[6] = Example 2, A=1.0% 1,2-octanediol, C=0.8% 1,2-octanediol+0.2% 4-methylbenzyl alcohol

How did the “cfu/ml at 0 days” value [1] turn out when `CCCCCCCCC(O)CO` (centres unmarked) [1,2-Decanediol, reference compound] was run?
Its value is 250000 cfu/ml.

And the “cfu/ml at 2 days” value [1]?
The value was 208000 cfu/ml.

What about the “cfu/ml at 7 days” value [1] of the same compound?
The value was 302000 cfu/ml.

Which “cfu/ml at 0 days” value [2] does the source give for `CCCCC(O)CO` (centres unmarked) [1,2-Hexanediol, reference compound] here?
Its value is 250000 cfu/ml.

And the “cfu/ml at 2 days” value [2]?
The value was 212000 cfu/ml.

And the “cfu/ml at 7 days” value [2]?
Its value is 132000 cfu/ml.

Which “cfu/ml at 0 days” value [3] does the source give for `CCCC(O)CO` (centres unmarked) [1,2-Pentanediol, reference compound] here?
Its value is 250000 cfu/ml.

And the “cfu/ml at 2 days” value [3]?
Its value is 246000 cfu/ml.

What about the “cfu/ml at 7 days” value [3] of the same compound?
Its value is 265000 cfu/ml.

What about the “cfu/ml at 14 days” value [3] of the same compound?
The value was 246000 cfu/ml.

With `Cc1ccc(CO)cc1` [4-Methylbenzyl alcohol, 4-methylbenzyl alcohol] as the compound, how does the “Aspergillus niger germ count at 0 days (initial, "0 value")” value (“Aspergillus niger germ count at 0 days” for short) [4] read?
The value was 320000 cfu/ml.

What about the “Aspergillus niger germ count at 2 days” value [4] of the same compound?
Its value is 302000 cfu/ml.

What about the “Aspergillus niger germ count at 7 days” value [4] of the same compound?
Its value is 167000 cfu/ml.

What about the “Aspergillus niger germ count at 0 days” value [5] of the same compound?
Its value is 320000 cfu/ml.

And the “Aspergillus niger germ count at 2 days” value [5]?
The value was 302000 cfu/ml.

What about the “Aspergillus niger germ count at 7 days” value [5] of the same compound?
The value was 167000 cfu/ml.

What about the “Aspergillus niger germ count at 0 days” value [6] of the same compound?
Its value is 320000 cfu/ml.

What about the “Aspergillus niger germ count at 2 days” value [6] of the same compound?
Its value is 302000 cfu/ml.

And the “Aspergillus niger germ count at 7 days” value [6]?
Its value is 167000 cfu/ml.

What about the “cfu/ml at 0 days” value [3] of the same compound?
Its value is 250000 cfu/ml.

What about the “cfu/ml at 2 days” value [3] of the same compound?
The value was 208000 cfu/ml.

What about the “cfu/ml at 7 days” value [3] of the same compound?
The value was 302000 cfu/ml.

And the “cfu/ml at 14 days” value [3]?
Its value is 132000 cfu/ml.

What about the “cfu/ml at 0 days” value [2] of the same compound?
Its value is 250000 cfu/ml.

And the “cfu/ml at 2 days” value [2]?
The value was 208000 cfu/ml.

What about the “cfu/ml at 7 days” value [2] of the same compound?
The value was 302000 cfu/ml.

And the “cfu/ml at 0 days” value [1]?
The value was 250000 cfu/ml.

And the “cfu/ml at 2 days” value [1]?
The value was 208000 cfu/ml.

And the “cfu/ml at 7 days” value [1]?
Its value is 302000 cfu/ml.
